For experiment [1], the system named is Enterococcus faecalis ATCC 19433. Description: Inhibition of bacterial growth in culture, spiral gradient endpoint assay (MIC). The class given is cell-based. Conditions: for MIC: Enterococcus faecalis, ATCC 19433 /, 16 h, read-out: MIC E. faecalis, Mueller-Hinton II agar, 16 h at 37° C. An excerpt:
J. Microbiol. Meths. […] Int. J. Exp. Clin. Chemother. […] Adv.

For experiment [2], the system named is Escherichia coli D21f2tolC. Description: microbe, parasite or virus in culture. Conditions: 16 h, read-out: MIC E. coli D21f2tolC, Mueller-Hinton II agar, 16 h at 37° C.
Experiment [3] relates to Staphylococcus aureus ATCC 12600. Description: Inhibition of bacterial growth in culture, spiral gradient endpoint assay (MIC). Conditions: Staphylococcus aureus, ATCC12600, 16 h, read-out: MIC S. aureus 12600, Mueller-Hinton II agar, 16 h at 37° C.

≈ marks a conversion by molar mass, not a printed value. Bounds are passed on as bounds.

In the case of `O=C(CCc1ccc(Oc2ccc(C(F)(F)F)cc2)cc1)c1c(O)cc(O)cc1O` [Example 35, 3-(4-(4-(trifluoromethyl)phenoxy)phenyl)-1-(2,4,6-trihydroxyphenyl)propan-1-one], the MIC in experiment [1] came to 5.1 µg/mL (≈ 12.2 µM); in experiment [2], 1.3 µg/mL (≈ 3.11 µM); in experiment [3], 3.5 µg/mL (≈ 8.37 µM).
In the same order, the values of `O=C(c1c(O)cc(O)cc1O)C1CC1c1ccc(C(F)(F)F)cc1` (stereo not drawn) [Example 58, (2-(4-(trifluoromethyl)phenyl)cyclopropyl)(2,4,6-trihydroxyphenyl)methanone] are 12 µg/mL (≈ 35.5 µM), 3.9 µg/mL (≈ 11.5 µM) and 10 µg/mL (≈ 29.6 µM).
For `O=C(c1c(O)cc(O)cc1O)C1CC1c1ccc(Oc2ccc(Cl)cc2)cc1` (stereo not drawn) [Example 13, (2-(4-(4-chlorophenoxy)phenyl)cyclopropyl)(2,4,6-trihydroxyphenyl)methanone], the figures for the MIC in experiment [1], in experiment [2] and in experiment [3] were 4.8 µg/mL (≈ 12.1 µM), 2.1 µg/mL (≈ 5.29 µM) and 4.3 µg/mL (≈ 10.8 µM), respectively.
On the same counts, the results for `O=C(c1c(O)cc(O)c(Cl)c1O)C1CC1c1ccc(Cl)cc1` (stereo not drawn) [Example 55, (3-chloro-2,4,6-trihydroxyphenyl)(2-(4-chlorophenyl)cyclopropyl)methanone] are 22 µg/mL (≈ 64.9 µM), greater than 40 µg/mL and 17 µg/mL (≈ 50.1 µM).
In the same order, the values of `CCC1=C(O)C(CC)(CC)C(=O)C(C(=O)C2CC2c2ccc(Cl)cc2C)=C1O` (stereo not drawn) [Example 82, 2-(2-(4-chloro-2-methylphenyl)cyclopropanecarbonyl)-4,6,6-triethyl-3,5-dihydroxycyclohexa-2,4-dienone] are 12 µg/mL (≈ 29.8 µM), 1.2 µg/mL (≈ 2.98 µM) and 3.6 µg/mL (≈ 8.93 µM).
As for `CCC1=C(O)C(CC)(CC)C(=O)C(C(=O)C2CC2c2ccc(Cl)cc2)=C1O` (stereo not drawn) [Example 81, 2-(2-(4-chlorophenyl)cyclopropanecarbonyl)-4,6,6-triethyl-3,5-dihydroxycyclohexa-2,4-dienone], the “MIC E. faecalis H37Rv” value in experiment [1] (Mueller-Hinton II agar, 16 h at 37° C.) amounted to 11 µg/mL (≈ 28.3 µM). Besides, the MIC in experiment [2] came out at 2.2 µg/mL (≈ 5.66 µM); in experiment [3], 4.5 µg/mL (≈ 11.6 µM).
Take `CCCC1=C(O)C(CCC)(CCC)C(=O)C(C(=O)C2CC2c2ccc(Oc3ccc(F)cc3)cc2C(F)(F)F)=C1O` (stereo not drawn) [Example 70, 2-(2-(4-(4-fluorophenoxy)-2-(trifluoromethyl)phenyl)cyclopropanecarbonyl)-3,5-dihydroxy-4,6,6-tripropylcyclohexa-2,4-dienone]: the MIC came to 1.2 µg/mL (≈ 2.09 µM) in experiment [1], 8.2 µg/mL (≈ 14.3 µM) in experiment [2] and 1.5 µg/mL (≈ 2.61 µM) in experiment [3].
As for `O=C(/C=C/c1ccc(Oc2ccccc2)cc1C(F)(F)F)c1c(O)cc(O)cc1O` [Example 15, (E)-3-(4-phenoxy-2-(trifluoromethyl)phenyl)-1-(2,4,6-trihydroxyphenyl)prop-2-en-1-one], the MIC in experiment [1] was determined as 3.6 µg/mL (≈ 8.65 µM); in experiment [2], 1.8 µg/mL (≈ 4.32 µM); in experiment [3], 3.2 µg/mL (≈ 7.69 µM).
In the same order, the values of `Cc1cc(Cl)ccc1C1CC1C(=O)c1c(O)cc(O)cc1O` (stereo not drawn) [Example 53, (2-(4-chloro-2-methylphenyl)cyclopropyl)(2,4,6-trihydroxyphenyl)methanone] are 5.3 µg/mL (≈ 16.6 µM), 4.7 µg/mL (≈ 14.7 µM) and 4.7 µg/mL (≈ 14.7 µM).
As for `CC1=C(O)C(C)(C)C(=O)C(C(=O)C2CC2c2ccc(C(F)(F)F)cc2)=C1O` (stereo not drawn) [Example 88, 3,5-dihydroxy-4,6,6-trimethyl-2-(2-(4-(trifluoromethyl)phenyl)cyclopropanecarbonyl)cyclohexa-2,4-dienone], the MIC in experiment [1], in experiment [2] and in experiment [3] was greater than 40 µg/mL each time.
Take `Cc1cc(Oc2ccccc2)ccc1/C=C/C(=O)c1c(O)cc(O)c(Cl)c1O` [Example 40, (E)-1-(3-chloro-2,4,6-trihydroxyphenyl)-3-(2-methyl-4-phenoxyphenyl)prop-2-en-1-one]: the values for the MIC in experiment [1], in experiment [2] and in experiment [3] were greater than 40 µg/mL, 9.4 µg/mL (≈ 23.7 µM) and greater than 40 µg/mL, respectively.
Take `COc1ccc(C2CC2C(=O)c2c(O)cc(O)cc2O)cc1` (stereo not drawn) [Example 38, (2-(4-methoxyphenyl)cyclopropyl)(2,4,6-trihydroxyphenyl)methanone]: the MIC in experiment [1], in experiment [2] and in experiment [3] was greater than 40 µg/mL each time.
